Target: T1, Kinesin-like protein KIF18A (Homo sapiens, UniProt Q8NI77)
T1 sequence (Q8NI77 whole entry): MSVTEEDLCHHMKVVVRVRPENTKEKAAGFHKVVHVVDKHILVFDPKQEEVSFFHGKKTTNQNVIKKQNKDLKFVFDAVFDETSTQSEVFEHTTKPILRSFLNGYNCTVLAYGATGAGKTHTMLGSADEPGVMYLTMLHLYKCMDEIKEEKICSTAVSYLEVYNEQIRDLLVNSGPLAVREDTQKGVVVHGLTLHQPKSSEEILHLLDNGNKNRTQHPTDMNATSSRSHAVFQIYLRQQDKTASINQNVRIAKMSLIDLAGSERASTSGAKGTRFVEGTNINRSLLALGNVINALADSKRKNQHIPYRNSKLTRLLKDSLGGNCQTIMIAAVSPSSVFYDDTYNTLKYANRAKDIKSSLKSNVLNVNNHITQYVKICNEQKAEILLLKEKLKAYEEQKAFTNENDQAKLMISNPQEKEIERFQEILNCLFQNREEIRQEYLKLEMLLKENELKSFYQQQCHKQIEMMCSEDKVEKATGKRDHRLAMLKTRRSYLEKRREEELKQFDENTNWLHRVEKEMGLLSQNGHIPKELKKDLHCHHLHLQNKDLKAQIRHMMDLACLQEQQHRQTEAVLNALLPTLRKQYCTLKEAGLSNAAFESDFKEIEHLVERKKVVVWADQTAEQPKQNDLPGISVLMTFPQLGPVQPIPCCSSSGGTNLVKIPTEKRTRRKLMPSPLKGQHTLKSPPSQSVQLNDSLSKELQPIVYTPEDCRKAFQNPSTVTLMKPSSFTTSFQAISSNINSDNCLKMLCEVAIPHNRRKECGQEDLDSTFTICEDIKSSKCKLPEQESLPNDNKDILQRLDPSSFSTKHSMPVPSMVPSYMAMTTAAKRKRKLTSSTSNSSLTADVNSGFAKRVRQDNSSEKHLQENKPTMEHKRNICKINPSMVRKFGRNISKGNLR
Experiment: Inhibitory Activity Assay
Procedure: In this experiment, an ADP-Glo kit was used to detect the inhibitory activity of the compounds against KIF18A. Each compound was prepared into a 10 mM stock solution with DMSO, which was then diluted at 1:5 to obtain 9 gradients with the initial final concentration set at 10 μM. Meanwhile, a control group and a blank group were also set up. The reaction buffer consisted of 15 mM Tris (pH 7.5), 10 mM MgCl2, and 0.01% Pluronic F-68. […] Finally, the ADP-Glo reagent was added to detect the luminescence intensity, where the luminescence intensity is directly proportional to the ADP content. Inhibition rate (%)=(1−Sample signal)/DMSO signal×100. Sample signal is the value of the compound group, and DMSO signal is the value of the DMSO control group. Then, the inhibition rate at each concentration was calculated, and the IC50 was determined by fitting using the GraphPadPrism 7.0 software.

Structure (SMILES)	IC50
CS(=O)(=O)Nc1ccc(C(=O)Nc2cc3cccnc3c(N3CCC(F)(F)CC3)n2)c(N2CCC3(CC2)CC3)c1 [US20250382298, Compound 32]	117 nM
CS(=O)(=O)Nc1ccc(C(=O)Nc2cc3cccnc3c(N3CCC(F)(F)CC3)n2)c(N2CC3CCC(C3)C2)c1 [US20250382298, Compound 33]	111 nM
O=C(Nc1cn2ccnc2c(N2CCC3(CC2)CC3)n1)c1ccc(NS(=O)(=O)CCO)cc1N1CCC2(CC1)CC2 [US20250382298, Compound 31]	55.3 nM
CS(=O)(=O)Nc1ccc(C(=O)Nc2cc3nccnc3c(N3CCC(F)(F)CC3)n2)c(N2CC3CCC(C3)C2)c1 [US20250382298, Compound 72]	134 nM

Stronger by IC50, values ahead:

IC50	Structure (SMILES)
32.2 nM	O=C(Nc1cc2nccnc2c(N2CCC(F)(F)CC2)n1)c1ccc(NS(=O)(=O)CCO)cc1N1CCC2(CC1)CC2 [US20250382298, Compound 39]
10.7 nM	O=C(Nc1cc2cccnc2c(N2CCC(F)(F)CC2)n1)c1ccc(NS(=O)(=O)CCO)cc1N1CCC2(CC1)CC2 [US20250382298, Compound 21]
44.3 nM	O=C(Nc1cn2c(F)cnc2c(N2CCC(F)(F)CC2)n1)c1ccc(NS(=O)(=O)CCO)cc1N1CCC2(CC1)CC2 [US20250382298, Compound 34]
10 nM	O=C(Nc1cn2c(F)cnc2c(N2CCC(F)(F)CC2)n1)c1ccc(NS(=O)(=O)CCO)cc1N1CC2CCC(C2)C1 [US20250382298, Compound 51]
26.8 nM	CS(=O)(=O)Nc1ccc(C(=O)Nc2cn3ccnc3c(N3CCC(F)(F)CC3)n2)c(N2CC3CCC(C3)C2)c1 [US20250382298, Compound 19]
